One experiment deals with LLC. In words: CCK8 growth inhibition, LLC. In kind it is cell-based. The conditions noted are these: Lewis lung carcinoma; CCK8 method; read-out: IC50 of inhibitory activity on tumor cell growth, LLC.
For experiment [1], the system named is murine leukemia WEHI-3 cells. In words: CCK8 growth inhibition, WEHI-3. In kind it is cell-based. The following applies: Mus musculus, CCK8 method, read-out: IC50 of inhibitory activity on tumor cell growth, WEHI-3. (Tetrazolium assays rely on reduction of a dye to a coloured formazan, in cell work by metabolically active cells.)

Usually IC50 stands for the midpoint of a concentration-inhibition curve.

On to `CCCCOc1nc(N)c2nc(O)n(Cc3cn(CCOCCOCCOCCNC(=S)Nc4cc(Nc5nccc(-c6cn(C)c7ccccc67)n5)c(OC)cc4N(C)CCN(C)C)nn3)c2n1` [GY127], for which, in the experiment on LLC, the IC50 turned out to be 15.3 µM.
Turning to `CCCCOc1nc(N)c2nc(O)n(Cc3cn(CCOCCOCCOCCNC(=S)N4CCCC(n5nc(-c6ccc(Oc7ccccc7)cc6)c6c(N)ncnc65)C4)nn3)c2n1` (stereo not drawn) [GY112], the IC50 in experiment [1] amounted to 5.31 µM; with LLC, 18.8 µM.
